Reference: patent US11602521B2, “N,N-dimethyltryptamine compositions and methods” (ATAI Life Sciences AG, priority 2021, dated 2023)
Read-outs that look alike come from different tables or passages of the source.

Assay: DMT plasma concentration after a single SC injection of DMT succinate to rats
Type: in vivo
Conditions: for DMT plasma concentration: rats; for AUC0-24 hr/Dose / AUCTlast/Dose / Cmax/Dose / Tlast / AUC(0-t) / Tmax: Day 1, rats; for Cmax: both sexes, Day 1, rats males and females combined; for Cmax / AUC(0-t) / Tmax: rat, plasma; for AUC(0-t): sc
Source text: Example 2: Study of DMT Succinate Administered Subcutaneously

[1] = 5 mg/kg DMT succinate single SC
[2] = 10 mg/kg DMT succinate single SC

For `CN(C)CCc1c[nH]c2ccccc12` [DMT, N,N-dimethyltryptamine], the DMT plasma concentration (5 mg/kg DMT succinate SC, Time 0.5 h) was 228, the DMT plasma concentration (5 mg/kg DMT succinate SC, Time 1 h) was 202 and the DMT plasma concentration (5 mg/kg DMT succinate SC, Time 2 h) was 27.1. For the same molecule, the DMT plasma concentration (5 mg/kg DMT succinate SC, Time 4 h) was 0, the DMT plasma concentration (5 mg/kg DMT succinate SC, Time 8 h) was 0 and the DMT plasma concentration (5 mg/kg DMT succinate SC, Time 12 h) was 0. The DMT plasma concentration (5 mg/kg DMT succinate SC, Time 24 h) was 0, the “AUC0-24 hr/Dose” value [1] was 61.1 kg·ng·h/mL/mg and the AUCTlast/Dose [1] was 55.7 kg·ng·h/mL/mg. The Cmax/Dose [1] was 45.5 kg·ng/mL/mg, the Tlast [1] was 2 h and the DMT plasma concentration (10 mg/kg DMT succinate SC, Time 0.5 h) was 836. For the same molecule, the DMT plasma concentration (10 mg/kg DMT succinate SC, Time 1 h) was 1260, the DMT plasma concentration (10 mg/kg DMT succinate SC, Time 2 h) was 1170 and the DMT plasma concentration (10 mg/kg DMT succinate SC, Time 4 h) was 149. The DMT plasma concentration (10 mg/kg DMT succinate SC, Time 8 h) was 0.707, the DMT plasma concentration (10 mg/kg DMT succinate SC, Time 12 h) was 0 and the DMT plasma concentration (10 mg/kg DMT succinate SC, Time 24 h) was 0. For the same molecule, the “AUC0-24 hr/Dose” value [2] was 143 kg·ng·h/mL/mg, the AUCTlast/Dose [2] was 142 kg·ng·h/mL/mg and the Cmax/Dose [2] was 50.5 kg·ng/mL/mg. For the same molecule, the Tlast [2] was 8 h, the Cmax [1] was 228 ng/mL and the Cmax [2] was 1260 ng/mL. For the same molecule, the AUC(0-t) (5 mg/kg, 5 mg/kg DMT succinate single SC, read-out: AUC0-24 hr) was 306 ng·h/mL, the AUC(0-t) (5 mg/kg, 5 mg/kg DMT succinate single SC, read-out: AUCTlast) was 278 ng·h/mL and the AUC(0-t) (10 mg/kg, 10 mg/kg DMT succinate single SC, read-out: AUC0-24 hr) was 3560 ng·h/mL. It also gave an AUC(0-t) (10 mg/kg, 10 mg/kg DMT succinate single SC, read-out: AUCTlast) of 3560 ng·h/mL, a Tmax [1] of 30 min and a Tmax [2] of 60 min.
